Experimental data taken from PMC12062780, “Validation of ion mobility spectrometry ‐ mass spectrometry as a screening tool to identify type II kinase inhibitors of FGFR1 kinase” (Rapid Communications in Mass Spectrometry, 2021).

How the values were obtained:
FGFR1 [1] = target: T1, FGFR1 (Homo sapiens, UniProt P11362, C488A/C584S); test: ESI-CIU-IMS-MS collision-induced unfolding of FGFR1 after incubation with inhibitor; details: for IMS-MS Drift Time of unfolded conformer / Intensity vs base peak (5.5 ms) of the unfolded conformer at ca 7.6 ms: 11+ FGFR1 ions
T1 construct: made in house; host or cells: E. coli
Description: FGFR1 (2 μM) and inhibitors (8 μM) were incubated separately in ammonium acetate (100 mM) for 1 h at room temperature prior to analysis. A Synapt G2‐S travelling‐wave ion mobility spectrometry ‐ mass spectrometer equipped with a nano‐ESI source was used for all sample analyses (Waters Corp., Manchester, UK). Samples were analysed by nano‐ESI from in‐house fabricated gold–palladium‐coated borosilicate capillaries assembled using a P‐97 micropipette puller (Sutter Instrument Co., Novato, CA, USA) and a sputter coater (Polaron SC7620; Quorum Technologies Ltd, Kent, UK). The following instrument parameters were set: capillary voltage 1.8 kV, cone voltage 30 V, source temperature 100°C, backing pressure 9.3 mbar, travelling‐wave height 40 V, travelling‐wave speed 500 m/s, IMS He gas flow rate 150 mL/min, IMS N2 gas flow rate 50 mL/min. For the collision‐induced unfolding (CIU) experiments, the trap voltage was increased to 21 V or 24 V and the transfer voltage was maintained at 4 V. Data were processed by use of the MassLynx (version 4.1) and Driftscope software supplied with the mass spectrometer. The m/z scale was calibrated using a separate introduction of aqueous CsI at 1 mg/mL.
To see if type I and type II inhibitors affect the conformational profile of FGFR1, the protein was incubated with each inhibitor separately prior to nano‐ESI‐CIU‐IMS‐MS analysis. All charge‐state ions arising from the FGFR1–ligand complexes (selected individually by the initial quadrupole analyser) were subjected to CIU‐induced unfolding in the trap prior to IMS separation.
During these analyses, the trap energy was increased and protein unfolding was monitored by examining the drift times of the protein ions during their transit through the IMS cell.

[2] = target: T2, Human FGFR1 consisting of residues 457–765 with C488A and C584S mutations (Homo sapiens, UniProt P11362, C488A/C584S); test: Isothermal titration calorimetry (ITC) of inhibitor binding to FGFR1; details: 25°C, type I TKIs
T2 construct: made in house; host or cells: E. coli
Description: ITC was carried out using a Microcal ITC200 instrument (GE Healthcare Biosciences, Amersham, UK). FGFR1 was dialysed against the experimental buffer (20 mM Tris/HCl, 100 mM NaCl and 5 mM DTT pH 7.8) prior to titration with inhibitor. Inhibitors were dissolved in DMSO, and experimental buffer DMSO concentration was matched. Titrations were performed at 25°C with 2 μL injections of inhibitor (200 μM) every 180 s into the cell containing FGFR1 (20 μM) with stirring at 1000 rpm. Results were analysed in Origin (OriginLab, Northampton, MA, USA) and fitted using a one‐site binding model.

FGFR1 [3] = system: FGFR1; parameters: method as in PMID 22141913; details: cited from earlier work
FGFR1 kinase domain = target: T3, FGFR1 kinase domain (Homo sapiens, UniProt P11362, C488A/C584S); test: X-ray crystallography of FGFR1–ligand complexes (DFG loop status); type: binding; details: co-crystal structure
T3 construct: Human FGFR1 consisting of residues 457–765 with C488A and C584S mutations; made in house; host or cells: E. coli
Description: Data were integrated and scaled using XDS[23] and SCALA[24] as implemented within the autoPROC software package.[25] Data reduction and structure solution by molecular replacement were carried out using programs from the CCP4 software suite.[26] […] The protein–inhibitor complex model was refined using Buster,[28] interspersed with rounds of manual model building in Coot.[29]

FGFR1 [4] = target: T1, FGFR1; test: Microscale thermophoresis (MST), label-free; type: binding; details: type I TKI; MST per b30 and Figure S5 (Figure 2 legend says ITC), 25°C
Description: Thermophoresis was used to measure the binding interactions between FGFR1 and compounds. The MST measurements were performed using a Monolith NT.LabelFree instrument (NanoTemper Technologies GmbH, Munich, Germany). In this instrument, an infrared laser beam and light (fluorescence excitation and emission) was coupled with a dichroic mirror and focused on the sample. When the IR‐laser was on, it heated a small area of the sample and created a temperature gradient. The total fluorescence of the focused area was measured when the IR‐laser was off (Fcold) and on (Fhot). The capillaries were filled with the sample (less than 5 μL was required for each capillary). The following MST settings were used: LED power 70%, MST laser power 40%, fluorescence before (5 s), MST on (30 s), fluorescence after (3 s). […] After the capillary scan thermophoresis FGFR1 was measured for 30 s in the presence of the varied concentrations of compound. Fnorm = Fhot/Fcold was analysed and plotted by NT Analysis software (NanoTemper Technologies GmbH). Fraction bound = (Fnorm – Fnorm [unbound])/(Fnorm (bound) – Fnorm (unbound)) was calculated and the binding data were fitted to a Hill function (n = 1) using the instrument analysis software. To eliminate artifacts caused by labelling or modifying proteins, the fluorescence of tryptophan residues was used to monitor the local protein concentration. […]

FGFR1 [5] = details: read-out: in vitro IC50 against FGFR1; cited from earlier work

T1 sequence (P11362 with tags, fused parts or gaps C488A/C584S): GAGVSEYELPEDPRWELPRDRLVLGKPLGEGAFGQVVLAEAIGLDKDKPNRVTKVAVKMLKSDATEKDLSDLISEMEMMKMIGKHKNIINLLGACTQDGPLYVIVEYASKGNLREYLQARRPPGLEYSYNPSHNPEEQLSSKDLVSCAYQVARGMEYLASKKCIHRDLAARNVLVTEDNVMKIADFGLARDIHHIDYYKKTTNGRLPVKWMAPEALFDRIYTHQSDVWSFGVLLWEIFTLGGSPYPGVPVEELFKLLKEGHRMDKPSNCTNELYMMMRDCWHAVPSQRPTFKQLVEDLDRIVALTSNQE
T3 sequence (P11362 457-765 C488A/C584S): as the sequence (P11362 with tags, fused parts or gaps C488A/C584S) above, with G1L counted along it
T2 sequence (P11362 with tags, fused parts or gaps C488A/C584S): as the sequence (P11362 with tags, fused parts or gaps C488A/C584S) above

SMILES: CCCc1cc(Nc2nc(NCc3ccccn3)ncc2Br)n[nH]1 [Compound D]
- IMS-MS Drift Time of unfolded conformer (FGFR1 [1]; 21 V Trap): 7.5 ms
- Intensity vs base peak (5.5 ms) of the unfolded conformer at ca 7.6 ms (FGFR1 [1]; 21 V Trap): 27.5%
- IMS-MS Drift Time of unfolded conformer (FGFR1 [1]; 24 V Trap): 7.7 ms
- Intensity vs base peak (5.5 ms) of the unfolded conformer at ca 7.6 ms (FGFR1 [1]; 24 V Trap): 43.2%
- Kd for FGFR1 [2]: 36 nM

SMILES: COc1ccc(C(=O)Nc2cc(-c3ccccc3)[nH]n2)cc1OC [JK-P3]
- IMS-MS Drift Time of unfolded conformer (FGFR1 [1]; 21 V Trap): 7.5 ms
- Intensity vs base peak (5.5 ms) of the unfolded conformer at ca 7.6 ms (FGFR1 [1]; 21 V Trap): 30.8%
- IMS-MS Drift Time of unfolded conformer (FGFR1 [1]; 24 V Trap): 7.5 ms
- Intensity vs base peak (5.5 ms) of the unfolded conformer at ca 7.6 ms (FGFR1 [1]; 24 V Trap): 45.8%
- cellular activity against FGFR1 (FGFR1 [3]): cellular activity against FGFR1
- FGFR1 kinase conformation bound or induced (DFG motif orientation) (FGFR1 kinase domain): DFG in
- Kd (FGFR1 [4]): 25000 nM

SMILES: CNC(=O)c1cc(Oc2ccc(NC(=O)Nc3ccc(Cl)c(C(F)(F)F)c3)cc2)ccn1 [Sorafenib]
- IMS-MS Drift Time of unfolded conformer (FGFR1 [1]; 21 V Trap): 7.5 ms
- IMS-MS Drift Time of unfolded conformer (FGFR1 [1]; 24 V Trap): 7.5 ms
- Intensity vs base peak (5.5 ms) of the unfolded conformer at ca 7.6 ms (FGFR1 [1]; 24 V Trap): 66.1%
- Inhibitor class assigned from CIU profile (FGFR1 [1]; ESI-IMS-MS CIU profile): type II
- IC50 (FGFR1 [5]): 580 nM

SMILES: CN1CCN(c2ccc(NC(=O)c3n[nH]c4ccccc34)cc2)CC1 [JK-P5]
- IMS-MS Drift Time of unfolded conformer (FGFR1 [1]; 21 V Trap): 7.5 ms
- Intensity vs base peak (5.5 ms) of the unfolded conformer at ca 7.6 ms (FGFR1 [1]; 21 V Trap): 22.1%
- IMS-MS Drift Time of unfolded conformer (FGFR1 [1]; 24 V Trap): 7.5 ms
- Intensity vs base peak (5.5 ms) of the unfolded conformer at ca 7.6 ms (FGFR1 [1]; 24 V Trap): 32.2%
- cellular activity against FGFR1 (FGFR1 [3]): cellular activity against FGFR1
- FGFR1 kinase conformation bound or induced (DFG motif orientation) (FGFR1 kinase domain): DFG in
- Kd (FGFR1 [4]): 145 nM

SMILES: Cc1ccc(F)c(NC(=O)Nc2ccc(-c3cccc4[nH]nc(N)c34)cc2)c1 [Linifanib]
- IMS-MS Drift Time of unfolded conformer (FGFR1 [1]; 21 V Trap): 7.5 ms
- Intensity vs base peak (5.5 ms) of the unfolded conformer at ca 7.6 ms (FGFR1 [1]; 21 V Trap): 55.0%
- IMS-MS Drift Time of unfolded conformer (FGFR1 [1]; 24 V Trap): 7.7 ms
- Intensity vs base peak (5.5 ms) of the unfolded conformer at ca 7.6 ms (FGFR1 [1]; 24 V Trap): 92.8%
- FGFR1 kinase conformation bound or induced (DFG motif orientation) (FGFR1 kinase domain): DFG out

SMILES: CNC(=O)c1ccccc1Nc1cc(Nc2cn(C)nc2C)ncc1C(F)(F)F [Compound E]
- IMS-MS Drift Time of unfolded conformer (FGFR1 [1]; 21 V Trap): 7.5 ms
- Intensity vs base peak (5.5 ms) of the unfolded conformer at ca 7.6 ms (FGFR1 [1]; 21 V Trap): 24.2%
- IMS-MS Drift Time of unfolded conformer (FGFR1 [1]; 24 V Trap): 7.5 ms
- Intensity vs base peak (5.5 ms) of the unfolded conformer at ca 7.6 ms (FGFR1 [1]; 24 V Trap): 45.8%

SMILES: Cc1ccc(C(=O)Nc2ccc(CN3CCN(C)CC3)c(C(F)(F)F)c2)cc1C#Cc1cnc2cccnn12 [Ponatinib]
- IMS-MS Drift Time of unfolded conformer (FGFR1 [1]; 21 V Trap): 7.9 ms
- Intensity vs base peak (5.5 ms) of the unfolded conformer at ca 7.6 ms (FGFR1 [1]; 21 V Trap): 46.7%
- IMS-MS Drift Time of unfolded conformer (FGFR1 [1]; 24 V Trap): 7.7 ms
- Intensity vs base peak (5.5 ms) of the unfolded conformer at ca 7.6 ms (FGFR1 [1]; 24 V Trap): 71.2%

SMILES: Cc1cc(Nc2nc(NCCc3cccnc3)ncc2Br)n[nH]1 [Compound C]
- IMS-MS Drift Time of unfolded conformer (FGFR1 [1]; 21 V Trap): 7.5 ms
- Intensity vs base peak (5.5 ms) of the unfolded conformer at ca 7.6 ms (FGFR1 [1]; 21 V Trap): 25.0%
- IMS-MS Drift Time of unfolded conformer (FGFR1 [1]; 24 V Trap): 7.5 ms
- Intensity vs base peak (5.5 ms) of the unfolded conformer at ca 7.6 ms (FGFR1 [1]; 24 V Trap): 40.7%

SMILES: CC(C)Oc1cc(Nc2ccnc(NCc3cc(C4CC4)no3)n2)n[nH]1 [Compound B]
- IMS-MS Drift Time of unfolded conformer (FGFR1 [1]; 21 V Trap): 7.5 ms
- Intensity vs base peak (5.5 ms) of the unfolded conformer at ca 7.6 ms (FGFR1 [1]; 21 V Trap): 29.2%
- IMS-MS Drift Time of unfolded conformer (FGFR1 [1]; 24 V Trap): 7.7 ms
- Intensity vs base peak (5.5 ms) of the unfolded conformer at ca 7.6 ms (FGFR1 [1]; 24 V Trap): 50.8%
